Measurements from ChEMBL document CHEMBL5649169 (ChemMedChem, 2018).

How the values were obtained:
[1] = target: Peroxisomal acyl-coenzyme A oxidase 3 (Homo sapiens) (UniProt O15254)
[2] = target: Cilia- and flagella-associated protein 410 (Homo sapiens) (UniProt O43822)
[3] = target: Glutamine--tRNA ligase (Homo sapiens) (UniProt P47897)
[4] = target: Mediator of RNA polymerase II transcription subunit 23 (Homo sapiens) (UniProt Q9ULK4)
[5] = target: Large ribosomal subunit protein eL36 (Homo sapiens) (UniProt Q9Y3U8)
[6] = target: Small ribosomal subunit protein uS14 (Homo sapiens) (UniProt P62273)
[7] = target: Small nuclear ribonucleoprotein Sm D2 (Homo sapiens) (UniProt P62316)
Ephrin type-A receptor 4 = Ephrin type-A receptor 4 (Homo sapiens, UniProt P54764)
Homo sapiens [8] = species: Homo sapiens
[9] = target: Small ribosomal subunit protein eS17 (Homo sapiens) (UniProt P08708)
[10] = target: Heat shock cognate 71 kDa protein (Homo sapiens) (UniProt P11142)
[11] = target: Casein kinase I isoform epsilon (Homo sapiens) (UniProt P49674)
Chain of Casein kinase I isoform epsilon (Homo sapiens) (P49674 whole entry, looked up, canonical isoform): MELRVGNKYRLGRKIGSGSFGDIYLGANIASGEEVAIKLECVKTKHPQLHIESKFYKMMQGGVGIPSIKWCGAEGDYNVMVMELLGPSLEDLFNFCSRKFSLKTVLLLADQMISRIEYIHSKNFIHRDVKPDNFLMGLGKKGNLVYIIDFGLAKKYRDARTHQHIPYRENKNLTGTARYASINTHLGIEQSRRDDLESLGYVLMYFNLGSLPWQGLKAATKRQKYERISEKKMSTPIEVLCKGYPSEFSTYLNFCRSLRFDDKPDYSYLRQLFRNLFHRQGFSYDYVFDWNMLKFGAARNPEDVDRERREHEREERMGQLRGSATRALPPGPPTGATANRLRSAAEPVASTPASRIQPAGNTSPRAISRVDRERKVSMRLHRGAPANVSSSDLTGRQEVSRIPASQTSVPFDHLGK

[12] = target: Heterogeneous nuclear ribonucleoproteins C1/C2 (Homo sapiens) (UniProt P07910)
[13] = target: Proteasomal ubiquitin receptor ADRM1 (Homo sapiens) (UniProt Q16186)
[14] = target: Histone-binding protein RBBP4 (Homo sapiens) (UniProt Q09028)
Homo sapiens [15] = species: Homo sapiens; remark: listed apart in the source
[16] = target: cGMP-dependent protein kinase 1 (Homo sapiens) (UniProt Q13976)
Chain of cGMP-dependent protein kinase 1 (Homo sapiens) (Q13976 whole entry): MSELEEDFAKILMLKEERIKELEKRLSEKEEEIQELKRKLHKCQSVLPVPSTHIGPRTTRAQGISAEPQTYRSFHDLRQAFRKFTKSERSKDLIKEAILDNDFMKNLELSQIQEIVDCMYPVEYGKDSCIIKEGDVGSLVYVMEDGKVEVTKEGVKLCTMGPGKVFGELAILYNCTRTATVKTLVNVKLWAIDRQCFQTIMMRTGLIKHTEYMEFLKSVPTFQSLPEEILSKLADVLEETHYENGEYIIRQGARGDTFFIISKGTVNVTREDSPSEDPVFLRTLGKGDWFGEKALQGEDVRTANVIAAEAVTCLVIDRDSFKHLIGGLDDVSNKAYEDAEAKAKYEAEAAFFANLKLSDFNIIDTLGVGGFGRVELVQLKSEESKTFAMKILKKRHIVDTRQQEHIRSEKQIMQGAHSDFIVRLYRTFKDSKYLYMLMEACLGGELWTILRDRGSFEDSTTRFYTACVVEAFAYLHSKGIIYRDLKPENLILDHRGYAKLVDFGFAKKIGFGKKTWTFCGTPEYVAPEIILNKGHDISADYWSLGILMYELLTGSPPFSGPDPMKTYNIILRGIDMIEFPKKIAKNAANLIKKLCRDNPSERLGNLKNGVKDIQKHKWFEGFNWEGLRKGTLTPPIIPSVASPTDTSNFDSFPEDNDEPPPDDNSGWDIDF

[17] = target: Aurora kinase A (Homo sapiens) (UniProt O14965)
[18] = target: Calreticulin (Homo sapiens) (UniProt P27797)
Derlin-1 (Homo sapiens) = Derlin-1 (Homo sapiens) (UniProt Q9BUN8)
Homo sapiens [19] = species: Homo sapiens; remark: listed apart in the source
[20] = target: Dual specificity tyrosine-phosphorylation-regulated kinase 1A (Homo sapiens) (UniProt Q13627)
[21] = target: Protein SGT1 homolog (Homo sapiens) (UniProt Q9Y2Z0)
[22] = target: Double-stranded RNA-specific adenosine deaminase (Homo sapiens) (UniProt P55265)
[23] = target: Ribosomal protein eS27-like (Homo sapiens) (UniProt Q71UM5)
[24] = target: Vacuolar protein sorting-associated protein 35 (Homo sapiens) (UniProt Q96QK1)
[25] = target: Tyrosine-protein kinase Lyn (Homo sapiens) (UniProt P07948)
[26] = target: THO complex subunit 2 (Homo sapiens) (UniProt Q8NI27)
[27] = target: Equilibrative nucleobase transporter 1 (Homo sapiens) (UniProt Q8NBI5)
Chain of Equilibrative nucleobase transporter 1 (Homo sapiens) (Q8NBI5 whole entry): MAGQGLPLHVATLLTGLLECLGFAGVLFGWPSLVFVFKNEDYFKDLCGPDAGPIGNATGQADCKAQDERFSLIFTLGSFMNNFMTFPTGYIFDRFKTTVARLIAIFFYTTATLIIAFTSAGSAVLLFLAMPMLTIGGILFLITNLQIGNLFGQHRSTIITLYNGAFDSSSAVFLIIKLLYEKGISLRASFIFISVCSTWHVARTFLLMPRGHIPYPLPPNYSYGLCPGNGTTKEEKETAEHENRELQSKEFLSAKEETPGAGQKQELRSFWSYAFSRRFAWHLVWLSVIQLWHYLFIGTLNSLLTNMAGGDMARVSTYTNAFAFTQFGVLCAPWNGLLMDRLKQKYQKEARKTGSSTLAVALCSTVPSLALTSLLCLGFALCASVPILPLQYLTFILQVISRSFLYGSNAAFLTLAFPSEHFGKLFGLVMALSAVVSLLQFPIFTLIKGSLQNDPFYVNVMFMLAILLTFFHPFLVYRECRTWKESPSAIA

[28] = target: Heterogeneous nuclear ribonucleoprotein H3 (Homo sapiens) (UniProt P31942)
[29] = target: Nucleophosmin (Homo sapiens) (UniProt P06748)
[30] = target: Hepatoma-derived growth factor (Homo sapiens) (UniProt P51858)
Lamin-B2 (Homo sapiens) = Lamin-B2 (Homo sapiens) (UniProt Q03252)
[31] = target: Cleavage and polyadenylation specificity factor subunit 6 (Homo sapiens) (UniProt Q16630)
[32] = target: Tyrosine-protein kinase Fer (Homo sapiens) (UniProt P16591)
[33] = target: Chromodomain-helicase-DNA-binding protein 4 (Homo sapiens) (UniProt Q14839)
Chain of Chromodomain-helicase-DNA-binding protein 4 (Homo sapiens) (Q14839 whole entry): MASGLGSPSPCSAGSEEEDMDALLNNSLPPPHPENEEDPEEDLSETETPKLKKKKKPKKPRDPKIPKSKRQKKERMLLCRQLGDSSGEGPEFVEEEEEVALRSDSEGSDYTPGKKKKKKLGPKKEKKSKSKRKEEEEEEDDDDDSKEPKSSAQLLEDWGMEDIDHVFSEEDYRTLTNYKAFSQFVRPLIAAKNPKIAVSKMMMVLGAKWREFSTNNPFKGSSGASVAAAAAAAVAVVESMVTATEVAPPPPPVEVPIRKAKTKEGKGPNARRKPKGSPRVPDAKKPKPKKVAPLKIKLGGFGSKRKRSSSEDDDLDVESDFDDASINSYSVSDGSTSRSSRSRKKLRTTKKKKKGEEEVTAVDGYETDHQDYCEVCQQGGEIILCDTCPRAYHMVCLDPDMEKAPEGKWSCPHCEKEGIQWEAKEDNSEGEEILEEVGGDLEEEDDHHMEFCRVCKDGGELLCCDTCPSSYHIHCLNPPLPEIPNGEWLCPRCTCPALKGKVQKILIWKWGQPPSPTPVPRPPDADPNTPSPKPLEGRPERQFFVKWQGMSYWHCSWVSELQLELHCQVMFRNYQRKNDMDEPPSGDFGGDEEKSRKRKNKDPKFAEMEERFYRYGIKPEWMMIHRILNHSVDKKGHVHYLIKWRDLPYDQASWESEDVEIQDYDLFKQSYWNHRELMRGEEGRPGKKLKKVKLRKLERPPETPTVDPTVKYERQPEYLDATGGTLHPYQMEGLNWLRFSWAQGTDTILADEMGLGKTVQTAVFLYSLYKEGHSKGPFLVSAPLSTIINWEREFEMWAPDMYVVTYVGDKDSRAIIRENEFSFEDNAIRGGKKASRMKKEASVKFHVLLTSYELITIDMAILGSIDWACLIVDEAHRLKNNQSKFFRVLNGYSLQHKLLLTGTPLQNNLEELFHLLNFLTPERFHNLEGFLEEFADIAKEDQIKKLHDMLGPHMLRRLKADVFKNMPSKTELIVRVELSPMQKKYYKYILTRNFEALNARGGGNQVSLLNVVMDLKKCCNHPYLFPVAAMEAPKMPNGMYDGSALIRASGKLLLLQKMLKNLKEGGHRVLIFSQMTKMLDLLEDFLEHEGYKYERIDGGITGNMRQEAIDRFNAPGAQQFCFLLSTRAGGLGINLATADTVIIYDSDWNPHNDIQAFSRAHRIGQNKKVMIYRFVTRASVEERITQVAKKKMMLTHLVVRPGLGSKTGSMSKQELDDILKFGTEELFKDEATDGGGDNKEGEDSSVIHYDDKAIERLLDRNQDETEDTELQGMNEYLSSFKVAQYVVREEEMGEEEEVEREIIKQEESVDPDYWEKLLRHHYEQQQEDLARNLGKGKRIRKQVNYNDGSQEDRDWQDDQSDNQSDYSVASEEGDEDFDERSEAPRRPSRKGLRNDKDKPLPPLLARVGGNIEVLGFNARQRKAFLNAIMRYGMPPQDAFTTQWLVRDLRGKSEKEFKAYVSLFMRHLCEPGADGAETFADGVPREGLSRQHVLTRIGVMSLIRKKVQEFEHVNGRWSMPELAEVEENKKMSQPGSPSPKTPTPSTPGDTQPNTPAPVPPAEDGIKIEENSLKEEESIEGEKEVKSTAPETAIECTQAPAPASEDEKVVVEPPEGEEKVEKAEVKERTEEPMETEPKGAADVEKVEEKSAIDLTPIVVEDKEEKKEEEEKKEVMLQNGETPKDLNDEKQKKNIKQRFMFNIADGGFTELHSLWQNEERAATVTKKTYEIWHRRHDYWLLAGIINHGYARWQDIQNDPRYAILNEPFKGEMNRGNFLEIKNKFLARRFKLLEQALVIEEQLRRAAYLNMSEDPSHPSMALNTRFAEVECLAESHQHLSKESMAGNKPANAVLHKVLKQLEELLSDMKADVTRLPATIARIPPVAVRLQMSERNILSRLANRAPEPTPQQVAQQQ

[34] = target: SUMO-conjugating enzyme UBC9 (Homo sapiens) (UniProt P63279)
[35] = target: Exocyst complex component 1 (Homo sapiens) (UniProt Q9NV70)
Homo sapiens [36] = species: Homo sapiens; remark: listed apart in the source
[37] = target: Mitogen-activated protein kinase kinase kinase 1 (Homo sapiens) (UniProt Q13233)
[38] = target: Eukaryotic translation initiation factor 4H (Homo sapiens) (UniProt Q15056)
Ephrin type-A receptor 2 = Ephrin type-A receptor 2 (Homo sapiens, UniProt P29317)
[39] = target: Peroxisomal multifunctional enzyme type 2 (Homo sapiens) (UniProt P51659)
Chain of Peroxisomal multifunctional enzyme type 2 (Homo sapiens) (P51659 whole entry): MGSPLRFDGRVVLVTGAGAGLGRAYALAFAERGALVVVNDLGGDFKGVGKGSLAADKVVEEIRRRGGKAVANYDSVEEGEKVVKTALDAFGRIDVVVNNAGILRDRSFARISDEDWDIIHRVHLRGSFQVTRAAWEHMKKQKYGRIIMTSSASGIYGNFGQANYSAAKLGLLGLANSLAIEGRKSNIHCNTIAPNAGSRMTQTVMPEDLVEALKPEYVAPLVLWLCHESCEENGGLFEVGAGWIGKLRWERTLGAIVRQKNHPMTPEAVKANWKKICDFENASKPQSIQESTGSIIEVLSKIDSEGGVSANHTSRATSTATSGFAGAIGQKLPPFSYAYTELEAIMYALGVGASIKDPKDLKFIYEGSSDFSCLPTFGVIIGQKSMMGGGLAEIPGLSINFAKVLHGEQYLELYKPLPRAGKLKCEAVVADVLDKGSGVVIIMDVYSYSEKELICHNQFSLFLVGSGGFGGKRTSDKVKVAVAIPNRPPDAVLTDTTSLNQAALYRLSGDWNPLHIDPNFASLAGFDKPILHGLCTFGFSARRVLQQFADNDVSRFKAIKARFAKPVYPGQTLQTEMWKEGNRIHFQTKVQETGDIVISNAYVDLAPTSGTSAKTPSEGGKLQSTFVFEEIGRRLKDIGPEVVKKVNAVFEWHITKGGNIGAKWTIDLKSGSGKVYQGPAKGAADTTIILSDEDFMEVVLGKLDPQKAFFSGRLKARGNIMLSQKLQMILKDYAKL

[40] = target: Poly(rC)-binding protein 1 (Homo sapiens) (UniProt Q15365)
[41] = target: Maternal embryonic leucine zipper kinase (Homo sapiens) (UniProt Q14680)
[42] = target: 5-azacytidine-induced protein 2 (Homo sapiens) (UniProt Q9H6S1)
[43] = target: Trifunctional enzyme subunit alpha, mitochondrial (Homo sapiens) (UniProt P40939)
[44] = target: Serine/threonine-protein kinase N2 (Homo sapiens) (UniProt Q16513)
Further: assay method not described here.

Chain of Glutamine--tRNA ligase (Homo sapiens) (P47897 whole entry): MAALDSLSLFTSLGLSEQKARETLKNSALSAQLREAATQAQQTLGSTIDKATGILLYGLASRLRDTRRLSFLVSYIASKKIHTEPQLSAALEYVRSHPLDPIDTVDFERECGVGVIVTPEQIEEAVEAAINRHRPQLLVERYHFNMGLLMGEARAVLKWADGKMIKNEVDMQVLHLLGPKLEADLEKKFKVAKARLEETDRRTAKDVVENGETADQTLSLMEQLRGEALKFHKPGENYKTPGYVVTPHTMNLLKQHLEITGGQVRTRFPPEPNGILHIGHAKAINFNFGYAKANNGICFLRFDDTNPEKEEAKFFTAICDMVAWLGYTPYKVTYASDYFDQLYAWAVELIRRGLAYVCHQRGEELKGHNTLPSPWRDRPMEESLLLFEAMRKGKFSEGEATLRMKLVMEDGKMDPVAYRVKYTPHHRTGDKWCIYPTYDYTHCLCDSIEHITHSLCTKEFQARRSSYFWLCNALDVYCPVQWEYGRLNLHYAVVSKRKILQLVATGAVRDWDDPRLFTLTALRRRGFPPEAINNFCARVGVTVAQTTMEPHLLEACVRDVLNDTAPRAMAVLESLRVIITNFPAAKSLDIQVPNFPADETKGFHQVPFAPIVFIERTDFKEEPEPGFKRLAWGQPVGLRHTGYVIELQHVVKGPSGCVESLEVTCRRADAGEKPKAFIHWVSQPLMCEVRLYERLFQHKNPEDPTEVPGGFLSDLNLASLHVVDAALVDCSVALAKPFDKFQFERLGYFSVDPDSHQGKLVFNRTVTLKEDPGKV

In the case of `Cc1ccc(C(=O)Nc2cccc(C(F)(F)F)c2)cc1Nc1nc(-c2cccnc2)nc2c1cnn2C`, the ED50 [1] is reported as 0.00533 µM, the ED50 [2] is reported as 46.8 µM and the ED50 [3] is reported as 0.107 µM. It also gave an ED50 [4] of 4.89 µM, an ED50 [5] of 10.5 µM and an ED50 [6] of 0.108 µM. For the same compound, the ED50 [7] was 42.7 µM, the ED50 (Ephrin type-A receptor 4) was 1.13 µM and the ED50 (Homo sapiens [8]) was 106 µM. The ED50 [9] was 21.8 µM, the ED50 [10] was 0.121 µM and the ED50 [11] was 4.26 µM. For the same compound, the ED50 [12] was 0.127 µM, the ED50 [13] was 7.09 µM and the ED50 [14] was 11 µM. It also gave an ED50 (Homo sapiens [15]) of 16.8 µM, an ED50 [16] of 0.00246 µM and an ED50 [17] of 6.29 µM. For the same compound, the ED50 [18] was 24.3 µM, the ED50 (Derlin-1 (Homo sapiens)) was 13.9 µM and the ED50 (Homo sapiens [19]) was 11.6 µM. It also gave an ED50 [20] of 0.102 µM, an ED50 [21] of 17.2 µM and an ED50 [22] of 0.00467 µM. It also gave an ED50 [23] of 6.46 µM, an ED50 [24] of 15.7 µM and an ED50 [25] of 1.34 µM. For the same compound, the ED50 [26] was 8.4 µM, the ED50 [27] was 12.9 µM and the ED50 [28] was 0.00513 µM. The ED50 [29] was 0.00826 µM, the ED50 [30] was 0.0049 µM and the ED50 (Lamin-B2 (Homo sapiens)) was 257 µM. For the same compound, the ED50 [31] was 15 µM, the ED50 [32] was 0.0297 µM and the ED50 [33] was 0.00189 µM. The ED50 [34] was 47.7 µM, the ED50 [35] was 0.0112 µM and the ED50 (Homo sapiens [36]) was 0.00517 µM. The ED50 [37] was 6.12 µM, the ED50 [38] was 90.6 µM and the ED50 (Ephrin type-A receptor 2) was 0.58 µM. The ED50 [39] was 1.36 µM, the ED50 [40] was 13 µM and the ED50 [41] was 0.0176 µM. For the same compound, the ED50 [42] was 0.0383 µM, the ED50 [43] was 0.877 µM and the ED50 [44] was 0.0969 µM.
Work on `Cc1ccc(C(=O)Nc2cccc(C(F)(F)F)c2)cc1Nc1nc(-c2cccnc2)nc2nn(C)cc12` yielded an ED50 [1] of 7.13 µM, an ED50 [2] of 0.574 µM and an ED50 [3] of 17 µM. For the same compound, the ED50 [4] was 4.73 µM, the ED50 [5] was 0.0103 µM and the ED50 [6] was 0.00933 µM. It also gave an ED50 [7] of 9770 µM, an ED50 (Ephrin type-A receptor 4) of 5.1 µM and an ED50 (Homo sapiens [8]) of 14.7 µM. It also gave an ED50 [9] of 1.76 µM, an ED50 [10] of 1.76 µM and an ED50 [11] of 0.00408 µM. The ED50 [12] was 7.54 µM, the ED50 [13] was 0.0135 µM and the ED50 [14] was 0.458 µM. It also gave an ED50 (Homo sapiens [15]) of 0.00606 µM, an ED50 [16] of 4.94 µM and an ED50 [17] of 9.32 µM. It also gave an ED50 [18] of 24.5 µM, an ED50 (Derlin-1 (Homo sapiens)) of 28 µM and an ED50 (Homo sapiens [19]) of 1.33 µM. For the same compound, the ED50 [20] was 12.5 µM, the ED50 [21] was 4.08 µM and the ED50 [22] was 0.0077 µM. It also gave an ED50 [23] of 0.00432 µM, an ED50 [24] of 0.0256 µM and an ED50 [25] of 60.5 µM. It also gave an ED50 [26] of 2.05 µM, an ED50 [27] of 33.9 µM and an ED50 [28] of 17.1 µM. The ED50 [29] was 104 µM, the ED50 [30] was 12.4 µM and the ED50 (Lamin-B2 (Homo sapiens)) was 1.63 µM. For the same compound, the ED50 [31] was 0.349 µM, the ED50 [32] was 0.0189 µM and the ED50 [33] was 0.615 µM. The ED50 [34] was 0.291 µM, the ED50 [35] was 0.0794 µM and the ED50 (Homo sapiens [36]) was 22.8 µM. It also gave an ED50 [37] of 3.34 µM, an ED50 [38] of 10.8 µM and an ED50 (Ephrin type-A receptor 2) of 6.17 µM. The ED50 [39] was 0.85 µM, the ED50 [40] was 0.053 µM and the ED50 [41] was 6.57 µM. It also gave an ED50 [42] of 6.47 µM, an ED50 [43] of 0.0595 µM and an ED50 [44] of 0.0506 µM.
